Results taken from US20070049625A1, “EP2 receptor agonists for treating glaucoma” (Allergan, Inc., priority 2005, published 2007).

Experiments:
Format in all cases: in vivo
Beagle dogs [1] = assay: Intraocular pressure in conscious dogs by applanation pneumatonometry; settings: topical to one eye, single daily dose over a 5 day period; IOP before and 2, 4, 6 hours after dosing; vehicle in other eye
Protocol: (§1) Measurement of intraocular pressure studies in dogs involved applanation pneumatonometry performed in Beagle dogs of both sexes. The animals remained conscious throughout the study and were gently restrained by hand. The drug was administered topically to one eye using a dropper bottle to deliver approximately a 35 μl volume, the other eye received vehicle (1% polysorbate 80 in 5 mM Tris HCI) as a control. Proparacaine at 0.25% was used for corneal anesthesia during tonometry. Intraocular pressure was determined just before drug administration and at 2, 4, 6 hours thereafter on each day of the 5 day study. Measurement of ocular surface hyperemia was performed immediately before each of the intraocular pressure readings. Ocular surface hyperemia grading was semi-quantitative and assessed according to a 5 point scoring scale used for clinical evaluations: 0=none; 0.5=trace; 1=mild; 2=moderate; and 3=severe.

Beagle dogs [2] = assay: Ocular surface hyperemia grading in dogs; settings: topical to one eye, dosing over a 5 day period; 5 point scale 0=none, 0.5=trace, 1=mild, 2=moderate, 3=severe
Protocol: as §1

[3] = test system: Cynomolgus monkeys (Macaca fascicularis); assay: Intraocular pressure in laser-induced ocular hypertensive monkeys; settings: single topical dose, laser-treated ocular hypertensive eye, IOP at 2, 4, 6 and 24 hours
Protocol: Cynomolgus monkeys (Macaca fascicularis) were used for the intraocular pressure studies. Each animal was unilaterally laser-treated by circumferential laser photocoagulation to induce ocular hypertension in one eye. Conscious female animals were trained sit in custom design chairs and to accept applanation pneumatonometry. The drug was administered topically to one eye using a dropper bottle to deliver approximately a 35 μl volume, the other eye received vehicle (1% polysorbate 80 in 5 mM Tris HCl) as a control. Proparacaine at 0.25% was used for corneal anesthesia during tonometry. Intraocular pressure was determined just before drug administration and at 2, 4, 6, and 24 hours.

SMILES	effect on the IOP of dogs (Beagle dogs [1])	ocular surface hyperemia of dogs (Beagle dogs [2])	effect on the IOP of monkeys ([3]; 0.1% w/v solution)	effect on the IOP of monkeys ([3]; 0.01% w/v solution)	effect on the IOP of monkeys ([3]; 0.03% w/v solution)
CC(C)OC(=O)COc1cccc(CN(Cc2ccc(C(C)(C)C)cc2)S(=O)(=O)c2cccnc2)c1 [(3-{[(4-tert-butyl-benzyl)-(pyridine-3-sulfonyl)-amino]-methyl}-phenoxy)-acetic acid; isopropyl ester]	effective for reducing IOP of the dogs	minimal ocular surface hyperemia	lowers the elevated IOP over 24 hours almost to the level of the control normotensive eye	–	–
CC(C)(C)c1ccc(CN(Cc2cccc(OCC(=O)O)c2)S(=O)(=O)c2cccnc2)cc1 [(3-{[(4-tert-butyl-benzyl)-(pyridine-3-sulfonyl)-amino]-methyl}-phenoxy)-acetic acid]	effective for reducing IOP of the dogs	mild ocular surface hyperemia that diminishes over time	lowers the elevated IOP over 24 hours, almost to the level of the control normotensive eye	lowers the elevated IOP over 24 hours	lowers the elevated IOP over 24 hours, almost to the level of the control normotensive eye
